This note sets out measurements from patent US5844100A, “Ink compositions containing azo dyes for ink jet printing” (Ilford Imaging Switzerland GmbH, priority 1995, dated 1998).

Data set [1] is described as follows: Absorption maximum (λ max) in H2O. It is filed as physicochemical.
Data set [2] can be described thus: Dye solubility in water at 20° C., determined spectroscopically. It is filed as physicochemical. Particulars: heated at 50° C. 1 hour, cooled to 20° C., filtered. As for the experimental part:
The solubilities of the dyes according to the invention were determined as follows:
An excess of dye was heated at 50° C. in water with stirring for one hour. The mixture was then cooled down to 20° C. and filtered, and the dye content of the clear solution was determined spectroscopically.

On to `CC(=O)Nc1cc(Nc2nc(SCCCS(=O)(=O)O)nc(SCCCS(=O)(=O)O)n2)ccc1N=Nc1cc(S(=O)(=O)O)c2cccc(S(=O)(=O)O)c2c1` [Compound 102], for which, in data set [1], the “λ max (nm) in H2O” value is listed as 394 nm.

In the case of `Cc1ccc(S(=O)(=O)Nc2cc(S(=O)(=O)O)cc3cc(S(=O)(=O)O)c(N=Nc4cc(Nc5nc(SCCCS(=O)(=O)O)nc(SCCCS(=O)(=O)O)n5)ccc4S(=O)(=O)O)c(O)c23)cc1` [Compound 113], the “λ max (nm) in H2O” value in data set [1] is reported as 527 nm.

Turning to `COc1cc(N=Nc2cc(S(=O)(=O)O)c3cccc(S(=O)(=O)O)c3c2)c(C)cc1Nc1nc(SCCCS(=O)(=O)O)nc(SCCCS(=O)(=O)O)n1` [Compound 100], in data set [2], the “Solubility (in g per 100 ml)” value is 34 g per 100 ml. Moreover, the “λ max (nm) in H2O” value in data set [1] turned out to be 401 nm.

Consider `Cc1cc(N=Nc2c(Nc3c(C)cccc3C)ccc3cc(S(=O)(=O)O)cc(O)c23)c(S(=O)(=O)O)cc1Nc1nc(SCCCS(=O)(=O)O)nc(SCCCS(=O)(=O)O)n1` [Compound 120], for which the “λ max (nm) in H2O” value in data set [1] is 529 nm.

As for `Nc1ccc2cc(S(=O)(=O)O)cc(O)c2c1N=Nc1ccc(Nc2nc(SCCCS(=O)(=O)O)nc(SCCCS(=O)(=O)O)n2)cc1S(=O)(=O)O` [Compound 118], in data set [2], the “Solubility (in g per 100 ml)” value came to 43 g per 100 ml. Further, in data set [1], the “λ max (nm) in H2O” value was determined as 518 nm.

On to `O=S(=O)(O)CCCSc1nc(Nc2ccc(N=Nc3c(S(=O)(=O)O)cc4cccc(NS(=O)(=O)c5ccc(Br)cc5)c4c3O)c(S(=O)(=O)O)c2)nc(SCCCS(=O)(=O)O)n1` [Compound 111], for which the “λ max (nm) in H2O” value in data set [1] turned out to be 526 nm.

For the compound `O=C(O)CCNc1ccc2cc(S(=O)(=O)O)cc(O)c2c1N=Nc1ccc(Nc2nc(SCCCS(=O)(=O)O)nc(SCCCS(=O)(=O)O)n2)cc1S(=O)(=O)O` [Compound 119], the “λ max (nm) in H2O” value in data set [1] was 535 nm.

As to `Cc1ccc(N=Nc2c(S(=O)(=O)O)cc3cc(S(=O)(=O)O)cc(Nc4nc(SCCCS(=O)(=O)O)nc(SCCCS(=O)(=O)O)n4)c3c2O)c(S(=O)(=O)O)c1` [Compound 115], the “λ max (nm) in H2O” value in data set [1] stood at 543 nm.

As for `COc1cc(N=Nc2c(N)ccc3cc(S(=O)(=O)O)cc(O)c23)c(C)cc1Nc1nc(NCCO)nc(Nc2cccc(S(=O)(=O)O)c2)n1` [dye 1, reference compound], the “Solubility (in g per 100 ml)” value in data set [2] came out at 11 g per 100 ml.

For `COc1cc(S(=O)(=O)O)c(N=Nc2c(NCCC#N)ccc3cc(S(=O)(=O)O)cc(O)c23)cc1Nc1nc(SCCCS(=O)(=O)O)nc(SCCCS(=O)(=O)O)n1` [Compound 121], the “λ max (nm) in H2O” value in data set [1] turned out to be 542 nm.

For the compound `O=C(Nc1cc(S(=O)(=O)O)cc2cc(S(=O)(=O)O)c(N=Nc3cc(Nc4nc(SCCCS(=O)(=O)O)nc(SCCCS(=O)(=O)O)n4)ccc3S(=O)(=O)O)c(O)c12)c1ccccc1` [Compound 112], the “Solubility (in g per 100 ml)” value in data set [2] is given as 44 g per 100 ml. Moreover, in data set [1], the “λ max (nm) in H2O” value was determined as 512 nm.

With `COc1ccc(N=Nc2c(S(=O)(=O)O)cc3cc(S(=O)(=O)O)cc(Nc4nc(SCCCS(=O)(=O)O)nc(SCCCS(=O)(=O)O)n4)c3c2O)cc1S(=O)(=O)O` [Compound 116], the “λ max (nm) in H2O” value in data set [1] came out at 555 nm.

`O=S(=O)(O)CCCSc1nc(Nc2ccc(S(=O)(=O)O)c3cc(S(=O)(=O)O)c(N=Nc4ccc5c(S(=O)(=O)O)cccc5c4S(=O)(=O)O)c(O)c23)nc(SCCCS(=O)(=O)O)n1` [Compound 122]: in data set [1], the “λ max (nm) in H2O” value was 543 nm.

As to `COc1cc(N=Nc2cccc(S(=O)(=O)O)c2)c(C)cc1Nc1nc(SCCCCS(=O)(=O)O)nc(SCCCCS(=O)(=O)O)n1` [Compound 104], the “λ max (nm) in H2O” value in data set [1] was 383 nm.

Regarding `CCCCCC(=O)Nc1cc(S(=O)(=O)O)cc2cc(S(=O)(=O)O)c(N=Nc3cc(Nc4nc(SCCCS(=O)(=O)O)nc(SCCCS(=O)(=O)O)n4)c(OC)cc3S(=O)(=O)O)c(O)c12` [Compound 109], the “λ max (nm) in H2O” value in data set [1] was 530 nm.

`Cc1cc(Nc2nc(SCCCS(=O)(=O)O)nc(SCCCS(=O)(=O)O)n2)ccc1N=Nc1cc(S(=O)(=O)O)c2cccc(S(=O)(=O)O)c2c1` [Compound 103]: the “Solubility (in g per 100 ml)” value in data set [2] amounted to 30 g per 100 ml. Further, in data set [1], the “λ max (nm) in H2O” value is 383 nm.

For the compound `CCCCCCNc1nc(NCCCCCC)nc(Nc2cc(S(=O)(=O)O)cc3cc(S(=O)(=O)O)c(N=Nc4ccccc4S(=O)(=O)O)c(O)c23)n1` [dye 5, reference compound], in data set [2], the “Solubility (in g per 100 ml)” value is reported as 17 g per 100 ml.
